Key:
[1] = system: persian speedwell; test: Test Example 5: herbicidal effect by foliage application, plastic box (Table 20, symbol R); format: in vivo, Persian speedwell (Veronica persica); settings: foliage application, 320 g/ha
Outline: (§1)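 Sow seeds spot-wise in sterilized diluvial soil; cover with ~1.5 cm soil. Grow 14 days in greenhouse, 25° C. to 30° C. Spray foliage with emulsion diluted to predetermined amount. Rate effect after 3 weeks.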

[2] = system: southern crabgrass; test: Test Example 4: herbicidal effect by soil treatment (Table 19, symbol F); format: in vivo, southern crabgrass (Digitaria ciliaris); settings: amount of applied herbicide 320 g/ha
Outline: (§2)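 Applied as a water-diluted emulsion, the compound was sprayed onto soil covering newly sown seeds. Evaluation came three weeks after application, in a greenhouse held at 25° C. to 30° C.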

[3] = system: lambsquarters; test: Test Example 4: herbicidal effect by soil treatment (Table 19, symbol O); format: in vivo, lambsquarters (Chenopodium album); settings: amount of applied herbicide 320 g/ha
Outline: as §2

[4] = system: chickweed; test: Test Example 5: herbicidal effect by foliage application, plastic box (Table 20, symbol P); format: in vivo, common chickweed (Stellaria media); settings: foliage application, 320 g/ha, evaluated three weeks after application
Outline: as §1

[5] = system: blackgrass; test: Test Example 5: herbicidal effect by foliage application, plastic box (Table 20, symbol J); format: in vivo, blackgrass (Alopecurus myosuroides); settings: foliage application, 320 g/ha
Outline: as §1

[6] = system: wild oat; test: Test Example 4: herbicidal effect by soil treatment (Table 19, symbol I); format: in vivo, wild oat (Avena fatua); settings: amount of applied herbicide 320 g/ha
Outline: as §2

[7] = system: chickweed; test: Test Example 4: herbicidal effect by soil treatment (Table 19, symbol P); format: in vivo, common chickweed (Stellaria media); settings: amount of applied herbicide 320 g/ha
Outline: as §2

[8] = system: southern crabgrass; test: Test Example 5: herbicidal effect by foliage application, plastic box (Table 20, symbol F); format: in vivo, southern crabgrass (Digitaria ciliaris); settings: foliage application, 320 g/ha
Outline: as §1

[9] = system: green foxtail; test: Test Example 4: herbicidal effect by soil treatment (Table 19, symbol G); format: in vivo, green foxtail (Setaria viridis); settings: amount of applied herbicide 320 g/ha
Outline: as §2

[10] = system: barnyard grass; test: Test Example 4: herbicidal effect by soil treatment (Table 19, symbol H); format: in vivo, barnyard grass (Echinochloa crus-galli); settings: amount of applied herbicide 320 g/ha
Outline: as §2

[11] = system: wild oat; test: Test Example 5: herbicidal effect by foliage application, plastic box (Table 20, symbol I); format: in vivo, wild oat (Avena fatua); settings: foliage application, 320 g/ha
Outline: as §1

[12] = system: windgrass; test: Test Example 5: herbicidal effect by foliage application, plastic box (Table 20, symbol L); format: in vivo, windgrass (Apera spica-venti); settings: foliage application, 320 g/ha
Outline: as §1

[13] = system: velvetleaf; test: Test Example 5: herbicidal effect by foliage application, plastic box (Table 20, symbol M); format: in vivo, velvetleaf (Abutilon theophrasti); settings: foliage application, 320 g/ha
Outline: as §1

[14] = system: redroot pigweed; test: Test Example 4: herbicidal effect by soil treatment (Table 19, symbol N); format: in vivo, redroot pigweed (Amaranthus retroflexus); settings: amount of applied herbicide 320 g/ha
Outline: as §2

[15] = system: blackgrass; test: Test Example 4: herbicidal effect by soil treatment (Table 19, symbol J); format: in vivo, blackgrass (Alopecurus myosuroides); settings: amount of applied herbicide 320 g/ha
Outline: as §2

[16] = system: lambsquarters; test: Test Example 5: herbicidal effect by foliage application, plastic box (Table 20, symbol O); format: in vivo, lambsquarters (Chenopodium album); settings: foliage application, 320 g/ha
Outline: as §1

[17] = system: windgrass; test: Test Example 4: herbicidal effect by soil treatment (Table 19, symbol L); format: in vivo, windgrass (Apera spica-venti); settings: amount of applied herbicide 320 g/ha
Outline: as §2

[18] = system: redroot pigweed; test: Test Example 5: herbicidal effect by foliage application, plastic box (Table 20, symbol N); format: in vivo, redroot pigweed (Amaranthus retroflexus); settings: foliage application, 320 g/ha, evaluated three weeks after application
Outline: as §1

[19] = system: Italian ryegrass; test: Test Example 4: herbicidal effect by soil treatment (Table 19, symbol K); format: in vivo, Italian ryegrass (Lolium multiflorum); settings: amount of applied herbicide 320 g/ha
Outline: as §2

[20] = system: persian speedwell; test: Test Example 4: herbicidal effect by soil treatment (Table 19, symbol R); format: in vivo, Persian speedwell (Veronica persica); settings: amount of applied herbicide 320 g/ha
Outline: as §2

[21] = system: Italian ryegrass; test: Test Example 5: herbicidal effect by foliage application, plastic box (Table 20, symbol K); format: in vivo, Italian ryegrass (Lolium multiflorum); settings: foliage application, 320 g/ha
Outline: as §1

[22] = system: green foxtail; test: Test Example 5: herbicidal effect by foliage application, plastic box (Table 20, symbol G); format: in vivo, green foxtail (Setaria viridis); settings: foliage application, 320 g/ha
Outline: as §1

[23] = system: false cleavers; test: Test Example 5: herbicidal effect by foliage application, plastic box (Table 20, symbol Q); format: in vivo, false cleavers (Galium spurium); settings: foliage application, 320 g/ha
Outline: as §1

[24] = system: barnyard grass; test: Test Example 5: herbicidal effect by foliage application, plastic box (Table 20, symbol H); format: in vivo, barnyard grass (Echinochloa crus-galli); settings: foliage application, 320 g/ha
Outline: as §1

[25] = system: velvetleaf; test: Test Example 4: herbicidal effect by soil treatment (Table 19, symbol M); format: in vivo, velvetleaf (Abutilon theophrasti); settings: amount of applied herbicide 320 g/ha
Outline: as §2

[26] = system: Chinese sprangletop; test: Test Example 3: herbicidal effect by foliage application, Wagner pot (Table 18, symbol D); format: in vivo, chinese sprangletop (Leptochloa chinensis); settings: 320 g/ha
Outline: (§3)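 Plants were sown in alluvial soil held under 0.1–0.5 cm standing water and grown 14 days in a greenhouse at 25–30 °C. An emulsifiable formulation, water-diluted to the set dose, was then sprayed onto the foliage, and effects were scored three weeks later using previously defined criteria.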

[27] = system: barnyard grass; test: Test Example 3: herbicidal effect by foliage application, Wagner pot (Table 18, symbol H); format: in vivo, barnyard grass (Echinochloa crus-galli); settings: 320 g/ha
Outline: as §3

[28] = system: rice flat sedge; test: Test Example 3: herbicidal effect by foliage application, Wagner pot (Table 18, symbol E); format: in vivo, rice flat sedge (Cyperus iria); settings: 320 g/ha
Outline: as §3

[29] = evaluated three weeks after application

COc1cc(F)ccc1-c1sc2ccc(-c3ccoc3)cc2c1-c1c(O)c(C)nn(C)c1=O [2-170]
herbicidal effect on R: persian speedwell (criteria 0-5) [1, 29]: 1 (Herbicidal rate of 5% or more and less than 20%) | F: southern crabgrass, herbicidal effect rating [2]: 3 (Herbicidal rate of 40% or more and less than 70%) | O: lambsquarters, herbicidal effect rating [3]: 2 (Herbicidal rate of 20% or more and less than 40%) | herbicidal effect on P: chickweed (criteria 0-5) [4]: 5 (Herbicidal rate of 90% or more (almost completely withered)) | herbicidal effect on J: blackgrass (criteria 0-5) [5, 29]: 0 (Herbicidal rate of 5% or less (almost no effect)) | I: wild oat, herbicidal effect rating [6]: 0 (Herbicidal rate of 5% or less (almost no effect)) | P: chickweed, herbicidal effect rating [7]: 0 (Herbicidal rate of 5% or less (almost no effect)) | herbicidal effect on F: southern crabgrass (criteria 0-5) [8, 29]: 1 (Herbicidal rate of 5% or more and less than 20%) | G: green foxtail, herbicidal effect rating [9]: 0 (Herbicidal rate of 5% or less (almost no effect)) | H: barnyard grass, herbicidal effect rating [10]: 0 (Herbicidal rate of 5% or less (almost no effect)) | herbicidal effect on I: wild oat (criteria 0-5) [11, 29]: 0 (Herbicidal rate of 5% or less (almost no effect)) | herbicidal effect on L: windgrass (criteria 0-5) [12, 29]: 0 (Herbicidal rate of 5% or less (almost no effect)) | herbicidal effect on M: velvetleaf (criteria 0-5) [13, 29]: 3 (Herbicidal rate of 40% or more and less than 70%) | N: redroot pigweed, herbicidal effect rating [14]: 0 (Herbicidal rate of 5% or less (almost no effect)) | J: blackgrass, herbicidal effect rating [15]: 0 (Herbicidal rate of 5% or less (almost no effect)) | herbicidal effect on O: lambsquarters (criteria 0-5) [16, 29]: 3 (Herbicidal rate of 40% or more and less than 70%) | L: windgrass, herbicidal effect rating [17]: 0 (Herbicidal rate of 5% or less (almost no effect)) | herbicidal effect on N: redroot pigweed (criteria 0-5) [18]: 3 (Herbicidal rate of 40% or more and less than 70%) | K: Italian ryegrass, herbicidal effect rating [19]: 0 (Herbicidal rate of 5% or less (almost no effect)) | R: persian speedwell, herbicidal effect rating [20]: 0 (Herbicidal rate of 5% or less (almost no effect)) | herbicidal effect on K: Italian ryegrass (criteria 0-5) [21, 29]: 0 (Herbicidal rate of 5% or less (almost no effect)) | herbicidal effect on G: green foxtail (criteria 0-5) [22, 29]: 0 (Herbicidal rate of 5% or less (almost no effect)) | herbicidal effect on Q: false cleavers (criteria 0-5) [23, 29]: 0 (Herbicidal rate of 5% or less (almost no effect)) | herbicidal effect on H: barnyard grass (criteria 0-5) [24, 29]: 0 (Herbicidal rate of 5% or less (almost no effect)) | M: velvetleaf, herbicidal effect rating [25]: 0 (Herbicidal rate of 5% or less (almost no effect))

CCOc1cc2sc(-c3ccccc3OC)c(-c3c(O)c(C)nn(C)c3=O)c2cc1F [5-065]
herbicidal effect on persian speedwell (R) ([1]; three weeks after application): 5 (Herbicidal rate of 90% or more (almost completely withered)) | F: southern crabgrass, herbicidal effect grade [2]: 0 (Herbicidal rate of 5% or less (almost no effect)) | O: lambsquarters, herbicidal effect grade [3]: 5 (Herbicidal rate of 90% or more (almost completely withered)) | herbicidal effect on Chinese sprangletop (D) [26]: 3 (Herbicidal rate of 40% or more and less than 70%) | herbicidal effect on blackgrass (J) ([5]; three weeks after application): 4 (Herbicidal rate of 70% or more and less than 90%) | I: wild oat, herbicidal effect grade [6]: 1 (Herbicidal rate of 5% or more and less than 20%) | P: chickweed, herbicidal effect grade [7]: 5 (Herbicidal rate of 90% or more (almost completely withered)) | herbicidal effect on southern crabgrass (F) ([8]; three weeks after application): 4 (Herbicidal rate of 70% or more and less than 90%) | G: green foxtail, herbicidal effect grade [9]: 4 (Herbicidal rate of 70% or more and less than 90%) | H: barnyard grass, herbicidal effect grade [10]: 4 (Herbicidal rate of 70% or more and less than 90%) | herbicidal effect on wild oat (I) ([11]; three weeks after application): 4 (Herbicidal rate of 70% or more and less than 90%) | herbicidal effect on windgrass (L) ([12]; three weeks after application): 5 (Herbicidal rate of 90% or more (almost completely withered)) | herbicidal effect on velvetleaf (M) ([13]; three weeks after application): 5 (Herbicidal rate of 90% or more (almost completely withered)) | N: redroot pigweed, herbicidal effect grade [14]: 5 (Herbicidal rate of 90% or more (almost completely withered)) | J: blackgrass, herbicidal effect grade [15]: 3 (Herbicidal rate of 40% or more and less than 70%) | herbicidal effect on lambsquarters (O) ([16]; three weeks after application): 5 (Herbicidal rate of 90% or more (almost completely withered)) | L: windgrass, herbicidal effect grade [17]: 3 (Herbicidal rate of 40% or more and less than 70%) | herbicidal effect on barnyard grass (H) [27]: 4 (Herbicidal rate of 70% or more and less than 90%) | K: Italian ryegrass, herbicidal effect grade [19]: 3 (Herbicidal rate of 40% or more and less than 70%) | R: persian speedwell, herbicidal effect grade [20]: 5 (Herbicidal rate of 90% or more (almost completely withered)) | herbicidal effect on Italian ryegrass (K) ([21]; three weeks after application): 4 (Herbicidal rate of 70% or more and less than 90%) | herbicidal effect on green foxtail (G) ([22]; three weeks after application): 5 (Herbicidal rate of 90% or more (almost completely withered)) | herbicidal effect on false cleavers (Q) ([23]; three weeks after application): 5 (Herbicidal rate of 90% or more (almost completely withered)) | herbicidal effect on barnyard grass (H) ([24]; three weeks after application): 5 (Herbicidal rate of 90% or more (almost completely withered)) | herbicidal effect on rice flat sedge (E) [28]: 4 (Herbicidal rate of 70% or more and less than 90%) | M: velvetleaf, herbicidal effect grade [25]: 2 (Herbicidal rate of 20% or more and less than 40%)

From patent publication US20230085307A1, “PYRIDAZINONE COMPOUND AND HERBICIDE” (NISSAN CHEMICAL CORPORATION, priority 2019, published 2023)
